Earlier results on 1 compound are cited in patent US20100239665A1 (priority 2007, published 2010).

On to `COCCOC(=O)C1=C(C)NC(C)=C(C(=O)OC(C)C)C1c1cccc([N+](=O)[O-])c1` (stereo not shown) [Nimodipine], for which the solubility in water result is on record as “practically insoluble in water”.
